In data set [1] the target is cGMP-inhibited 3',5'-cyclic phosphodiesterase 3A (Homo sapiens) (UniProt Q14432). Briefly: Inhibition of human recombinant PDE3A using cAMP as substrate at 1 uM after 30 mins by HTRF method. Background: Time-resolved FRET reads energy transfer from a long-lived donor to a nearby acceptor.
Data set [2] can be described thus: Plasma clearance in iv dosed Swiss albino mouse. Type of data set: ADME, organism-based.

From ChEMBL document CHEMBL3352660, “Design, synthesis and pharmacological evaluation of novel polycyclic heteroarene ethers as PDE10A inhibitors: part II” (Bioorg Med Chem Lett, 2014) come the findings set out here.

SMILES strings stand for the structures.

Chain of cGMP-inhibited 3',5'-cyclic phosphodiesterase 3A (Homo sapiens) (Q14432 whole entry): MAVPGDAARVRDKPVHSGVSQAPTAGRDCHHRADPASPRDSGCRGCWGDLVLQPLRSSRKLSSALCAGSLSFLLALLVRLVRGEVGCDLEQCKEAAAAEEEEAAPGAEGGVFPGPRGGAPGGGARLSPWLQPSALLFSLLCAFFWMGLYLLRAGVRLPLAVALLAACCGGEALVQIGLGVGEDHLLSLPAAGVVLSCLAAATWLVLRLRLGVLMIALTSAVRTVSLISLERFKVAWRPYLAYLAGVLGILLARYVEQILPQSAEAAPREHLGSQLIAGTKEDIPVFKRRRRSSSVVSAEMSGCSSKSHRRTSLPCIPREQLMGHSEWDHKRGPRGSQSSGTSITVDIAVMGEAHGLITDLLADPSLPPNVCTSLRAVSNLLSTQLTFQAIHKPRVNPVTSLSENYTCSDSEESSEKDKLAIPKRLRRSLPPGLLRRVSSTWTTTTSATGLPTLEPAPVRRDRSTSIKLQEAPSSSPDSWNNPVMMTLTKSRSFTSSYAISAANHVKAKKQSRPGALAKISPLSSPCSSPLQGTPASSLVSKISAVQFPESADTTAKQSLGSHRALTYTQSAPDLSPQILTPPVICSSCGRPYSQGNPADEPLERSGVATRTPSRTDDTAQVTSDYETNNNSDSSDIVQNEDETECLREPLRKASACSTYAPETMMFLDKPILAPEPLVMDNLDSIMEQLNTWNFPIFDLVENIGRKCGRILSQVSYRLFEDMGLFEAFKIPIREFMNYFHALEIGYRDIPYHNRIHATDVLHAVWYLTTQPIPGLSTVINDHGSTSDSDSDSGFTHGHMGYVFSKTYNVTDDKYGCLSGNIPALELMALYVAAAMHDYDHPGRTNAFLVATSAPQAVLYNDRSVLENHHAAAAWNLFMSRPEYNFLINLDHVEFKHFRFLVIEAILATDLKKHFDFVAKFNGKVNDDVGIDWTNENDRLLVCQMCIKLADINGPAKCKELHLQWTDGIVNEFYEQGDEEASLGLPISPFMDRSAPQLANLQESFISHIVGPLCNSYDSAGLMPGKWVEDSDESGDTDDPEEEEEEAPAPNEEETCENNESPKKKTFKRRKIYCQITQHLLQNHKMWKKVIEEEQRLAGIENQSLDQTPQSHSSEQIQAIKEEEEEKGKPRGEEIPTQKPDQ

The inhibition is how much of the control response was suppressed. By clearance is commonly meant the volume of plasma or blood freed of the substance per unit of time. The low end stands for a low capacity for elimination, the high end for a high capacity for elimination. On to `Cn1cc(-c2ccc(Oc3nccnc3-c3ccncc3)cc2)c2ncccc21`, for which the inhibition in data set [1] stood at 0%. The compound further showed a clearance in data set [2] of 68.4 mL/min/kg.
